Assay results published in patent US12084403B2, “Linkers for antibody drug conjugates” (THE BOARD OF REGENTS OF THE UNIVERSITY OF TEXAS SYSTEM, priority 2017, dated 2024).
Starred links: 1 amine or outer side, 2 acyl side, 3 side chain; linkers in the order of their positions; H or OH if unused. Non-standard residues stand in square brackets, D forms with d. Residues, ends and D or L forms follow the SMILES beside them. *: point of attachment. EDDnp = O=[N+]([O-])c1ccc(NCCN*)c([N+](=O)[O-])c1; PABC = O=C(OCc1ccc(N[*:1])cc1)[*:2]; X1 = [N-]=[N+]=NCCOCCOCCOCC(=O)*; Cit = NC(=O)NCCC[C@H](N)C(=O)O; AEEEA = NCCOCCOCCOCC(=O)O

Assays:
[1] = Plasma stability test using pyrene probes, BALB/c mouse plasma; assay type: in vitro ADME; details: undiluted BALB/c mouse plasma, 37° C., HPLC
Protocol: To test this hypothesis, a panel of peptide probes containing a various amino acid at the P3 position were evaluated for plasma stability at the small-molecule level (FIG. 13B). VCit- and tripeptide probes 12a-f were first synthesized by standard solid- and liquid-phase peptide synthesis and following carbamate formation. These model probes consisted of a XVCit-PABC unit where X is none (12a), serine (12b), glutamic acid (12c), aspartic acid (12d), lysine (12e), or hydroxyacetylglycine (12f). It was assumed that serine and hydroxyacetylglycine would serve as a mimic of the hydroxy-functionalized tripeptide ADC linker with increased mouse plasma stability reported by Dorywalska et al (Dorywalska et al., 2016). In particular, the 2-hydroxyacetamide group within probe 12f is the modifier that provided the greatest stability in their report. These linkers were covalently linked to 1-pyrenemethylamine, a surrogate of hydrophobic payloads with distinct UV absorbance at 341 nm (van Geel et al., 2015). Subsequently, probes 12a-f were incubated in undiluted BALB/c plasma at 37° C. and the amount of each probe was monitored by HPLC (FIG. 13C). […] Taking into account that all probes tested were stable in human plasma and no significant degradation was observed after 2 days (FIG. 14A), the accelerated degradation observed in KVCit probe 12e may indicate that a basic side chain at the P3 position provides an additional interaction with Ces1c leading to fast bond cleavage. […] Thus, the stabilizing effect of a neutral carbonyl group at the P3 position was not as significant as that of a negatively charged carboxylic acid side chain.
Plasma stability test using pyrene probes. Each test compound (10 mM in DMSO, 2 μL) was mixed with 1 μL of 1-pyrenemethylamine (10 mM in DMSO, as an internal standard) and incubated at 37° C. for 10 min. Pooled healthy human plasma or BALB/c mouse plasma (197 μL, Innovative Research) was added to the mixture, followed by incubation at 37° C. Aliquots (10 μL) were collected at each time point (0, 1, 6, 24, 48, and 96 h) and 40 μL of cold acetonitrile containing 1% formic acid was added to precipitate proteins. Supernatant of each sample was obtained and analyzed for quantification by analytical HPLC as described above. All assays were performed at least three times in technical duplicate, and data shown are representative of the replicates.

[2] = target: human cathepsin B (Homo sapiens, UniProt P07858); assay: Cathepsin B-mediated cleavage of linear and branched probes in FRET assay; assay type: biochemical; details: for Slope (RFU/sec): quencher (EdDnp) release rate, linear regression, triplicate; for release of EdDnp in the presence of human cathepsin B: result in words
Protocol: FIG. 2. Quencher release rate determination in Förster resonance energy transfer (FRET) assay. Each slope reflecting drug (quencher) release rate was calculated by linear regression using Graph Pad Prism 7 software. […] All assays were performed in triplicate and error bars represent SEM.
These model linker units consisted of cathepsin B-cleavable valine-citrulline (Val-Cit) with or without polyethyleneglycol (PEG) spacers. This dipeptide sequence has been used in many successful ADCs including the FDA-approved ADC Adcetris® (Katz et al., 2011). The sequence is stable in circulation but in lysosomes undergoes cathepsin B-mediated cleavage, resulting in intracellular release of payload (Dubowchik et al., 2002). Tryptophan and 2,4-dinitrophenylethylenediamine (EdDnp) were installed as a fluorophore/quencher(s) pair, which is commonly used in the Förster resonance energy transfer (FRET) assay. The release of EdDnp from each synthetic model linker unit in the presence of human cathepsin B (Table 1 and Scheme 3) was assessed. […] Without wishing to be bound by any theory, it is surmised that the structural congestion of branched probe 3 due to the lack of PEG spacers prevents cathepsin B accessing Val-Cit moieties.

[3] = target: T1, Human liver cathepsin B (Homo sapiens, UniProt P07858); assay: Cathepsin B-mediated cleavage assay using pyrene probes; assay type: biochemical; details: 37° C., result in words
T1 construct: Human liver cathepsin B (20 ng/μL, 100 μL, EMD Millipore); purchased EMD Millipore; host or cells: human liver (tissue-derived, as the name says)
Protocol: Next, all probes were tested for responsiveness to human cathepsin B-mediated cleavage (FIG. 14B).
Cathepsin B-mediated cleavage assay using pyrene probes. Each test compound (10 mM in DMSO, 2 μL) was mixed with 97 μL of MES buffer (25 mM MES-Na, 1 mM DTT, pH 5.0) and 1 μL of 1-pyrenemethylamine (10 mM in DMSO, as an internal standard). The mixture was incubated at 37° C. for 10 min. Human liver cathepsin B (20 ng/μL, 100 μL, EMD Millipore) in MES buffer was added to the mixture, followed by incubation at 37° C. Aliquots (10 μL) were collected at each time point (0, 0.5, 1, 3, 24, and 48 h). Cold acetonitrile containing 1% formic acid (40 μL) was added to precipitate proteins. Precipitated proteins were separated by centrifugation (15,000 g, 4° C., 30 min) and supernatant of each sample was analyzed for quantification by analytical HPLC (UV absorption at 342 nm). The amount of each probe was normalized to the peak area of the internal standard. All assays were performed at least three times in technical duplicate, and data shown are representative of the replicates.

Row | Molecule | t1/2 [1] | Slope (RFU/sec) [2] | release of EdDnp in the presence of human cathepsin B [2] | human cathepsin B-mediated cleavage rate [3]
1 | HOCH2CO-Gly-Val-Cit-PABC-Sar-pyrene [probe 12f] | 5.0 h | – | – | –
2 | CC(=O)N[C@@H](Cc1c[nH]c2ccccc12)C(=O)N[C@@H](CCCCn1cc(CCC(=O)N[C@H](C(=O)N[C@@H](CCCNC(N)=O)C(=O)Nc2ccc(COC(=O)NCCNc3ccc([N+](=O)[O-])cc3[N+](=O)[O-])cc2)C(C)C)nn1)C(=O)N[C@H](C(=O)N[C@@H](CCCNC(N)=O)C(=O)Nc1ccc(COC(=O)NCCNc2ccc([N+](=O)[O-])cc2[N+](=O)[O-])cc1)C(C)C [probe 3] | – | 0.03 ± 0.06 RFU/sec | marginal release of EdDnp | –
3 | Ac-Asp-Val-Cit-PABC-Sar-pyrene [probe 12d] | 14.0 h | – | – | –
4 | Ac-Lys-Val-Cit-PABC-Sar-pyrene [probe 12e] | 0.9 h | – | – | –
5 | Ac-Ser-Val-Cit-PABC-Sar-pyrene [probe 12b] | 3.1 h | – | – | comparable with that of VCit probe 12a
6 | CC(=O)N[C@@H](Cc1c[nH]c2ccccc12)C(=O)N[C@@H](CCCCNC(=O)COCCOCCOCCn1cc(CCC(=O)N[C@H](C(=O)N[C@@H](CCCNC(N)=O)C(=O)Nc2ccc(COC(=O)NCCNc3ccc([N+](=O)[O-])cc3[N+](=O)[O-])cc2)C(C)C)nn1)C(=O)NCCOCCOCCOCC(=O)N[C@H](C(=O)N[C@@H](CCCNC(N)=O)C(=O)Nc1ccc(COC(=O)NCCNc2ccc([N+](=O)[O-])cc2[N+](=O)[O-])cc1)C(C)C [probe 4] | – | 1.56 ± 0.05 RFU/sec | comparable to that of linear PEG (+) probe 2 | –
7 | Ac-Val-Cit-PABC-Sar-pyrene [probe 12a] | 2.3 h | – | – | –
8 | CC(=O)N[C@@H](Cc1c[nH]c2ccccc12)C(=O)N[C@@H](CCCCNC(=O)COCCOCCOCCN=[N+]=[N-])C(=O)NCCOCCOCCOCC(=O)N[C@H](C(=O)N[C@@H](CCCNC(N)=O)C(=O)Nc1ccc(COC(=O)NCCNc2ccc([N+](=O)[O-])cc2[N+](=O)[O-])cc1)C(C)C [probe 2, Ac-Trp-Lys(-PEG3-N3)-PEG3-Val-Cit-PABC-EdDnp] (Ac-WK(X1)[AEEEA]V[Cit][PABC]-EDDnp) | – | 1.81 ± 0.07 RFU/sec | released EdDnp more efficiently than Linear PEG (−) 1 | –
9 | Ac-Glu-Val-Cit-PABC-Sar-pyrene [probe 12c] | 19.1 h | – | – | –
